Source: patent publication US4145430A, “Beta-lactam compounds, preparation and use” (Beecham Group Limited, priority 1977, dated 1979)

How the values were obtained:
[1] = Stability when free of solvent; format: physicochemical
Method: The compound of the formula (V) tends to polymerise when free of solvent at room temperature so that it must either be stored in solution (optionally with hydroquinone) or at a low temperature. Preferably the compound of the formula (V) is used shortly after its preparation.
For determination of spectroscopic and biological properties aliquots of the toluene solution were treated in a manner similar to that described above for measurement of the nmr spectrum. The title compound was characterised by the following spectroscopic properties. λmax (EtOH): 277.5 nm. .nu.max (CHCl3): 1797 (β-lactam C= O ), 1670 and 1640 (C=C)cm^-1. δ (CDCl3): 3.36 (d, J 17Hz, 1H, C(6)H), 3.63 (dd, J 17, 2Hz, 1H, C(6)H), 5.22 (dd, J 10.5, 1.0Hz, 1H, olefinic H), 5.49 (dd, J 16, 1.0Hz, 1H, olefinic H), 5.80 (s, 2H, C(5)H and C(2)H), 6.10 (dd, J 16, 10.5Hz, 1H, olefinic H).

[2] = molecular target: T1, β-lactamase from Ps. aeruginosa Dalgleish (Pseudomonas aeruginosa, UniProt P16897); assay: β-lactamase inhibition I50; format: biochemical
T1 construct: host or cells: Pseudomonas aeruginosa Dalgleish (the producing strain)
Method: (§1) The compound from Example 1 was a potent inhibitor of β-lactamase enzymes as illustrated in the following Table. I50 values were determined using the process described in Belgium Pat. No. 827,926.

[3] = molecular target: β-lactamase from Pseudomonas aeruginosa A; assay: β-lactamase inhibition I50; format: biochemical
Method: as §1

[4] = molecular target: β-lactamase from Proteus mirabilis C889; assay: β-lactamase inhibition I50; format: biochemical
Method: (§2) The I50 values obtained for the product of this example against certain common gram positive and gram negative bacteria were as follows:
as §1

[5] = molecular target: T2, β-lactamase from E. coli JT4 (Escherichia coli, UniProt P62593); assay: β-lactamase inhibition I50; format: biochemical
T2 construct: host or cells: E. coli JT4 (the producing strain)
Method: as §2, §1

[6] = molecular target: T3, β-lactamase from Enterobacter cloacae P99 (Enterobacter cloacae, UniProt P05364); assay: β-lactamase inhibition I50; format: biochemical
T3 construct: host or cells: Enterobacter cloacae P99 (the producing strain)
Method: as §2, §1

[7] = molecular target: lactamase from Ps. aeruginosa; assay: β-lactamase inhibition I50; format: biochemical; set-up: unit not given here
Description: The I50 values obtained for the product of this example against certain common gram positive and gram negative bacteria were as follows: […]

[8] = tested on: Candida albicans BRL 1003; assay: Antifungal activity, paper tape on seeded blood agar base plate; format: cell-based; conditions: BRL1003; loading of 250 μg on paper tape, Candida albicans BRL 1003, 28° C., 24 hours; read-out: zone of inhibition diameter
Method: The Z-isomer is able to inhibit the growth of Candida albicans. Thus, a loading of 250 μg of the Z-isomer on a paper tape which was contacted with a blood agar base plate seeded with Candida albicans BRL 1003 and incubated at 28° C. for 24 hours produced a zone of inhibition with diameter 22.1 mm.

T3 sequence (P05364 21-381): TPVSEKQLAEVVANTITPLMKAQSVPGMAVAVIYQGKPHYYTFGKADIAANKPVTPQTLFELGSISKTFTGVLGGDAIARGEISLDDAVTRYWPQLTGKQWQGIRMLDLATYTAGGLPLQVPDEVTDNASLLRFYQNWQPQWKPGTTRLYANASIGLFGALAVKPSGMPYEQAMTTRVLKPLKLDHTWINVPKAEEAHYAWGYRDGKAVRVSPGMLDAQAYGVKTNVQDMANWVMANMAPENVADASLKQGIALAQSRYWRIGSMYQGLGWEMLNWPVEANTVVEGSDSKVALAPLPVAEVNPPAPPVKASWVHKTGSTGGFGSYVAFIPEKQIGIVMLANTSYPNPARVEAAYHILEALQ
T2 sequence (P62593 24-286 limits assumed): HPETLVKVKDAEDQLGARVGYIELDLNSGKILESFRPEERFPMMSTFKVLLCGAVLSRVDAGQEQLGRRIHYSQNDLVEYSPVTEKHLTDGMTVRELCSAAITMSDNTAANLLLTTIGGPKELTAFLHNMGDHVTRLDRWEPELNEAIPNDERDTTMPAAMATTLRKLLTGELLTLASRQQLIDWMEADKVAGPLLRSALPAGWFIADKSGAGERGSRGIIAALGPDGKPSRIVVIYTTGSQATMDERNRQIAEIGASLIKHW
T1 sequence (P16897 18-288): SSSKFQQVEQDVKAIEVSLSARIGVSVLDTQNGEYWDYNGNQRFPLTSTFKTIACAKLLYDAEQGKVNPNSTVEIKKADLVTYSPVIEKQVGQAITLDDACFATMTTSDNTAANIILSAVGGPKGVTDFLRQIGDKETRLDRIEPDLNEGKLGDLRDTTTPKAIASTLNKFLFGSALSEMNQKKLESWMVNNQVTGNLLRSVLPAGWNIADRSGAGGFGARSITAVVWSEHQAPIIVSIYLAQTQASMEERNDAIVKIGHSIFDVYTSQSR

Structure (SMILES) | stability when free of solvent [1] | IC50 [2] [nM] | I50 [3] [µg/mL] | I50 [4] [µg/mL] | IC50 [5] [nM] | IC50 ([6]; β-lactamase from Enterobacter cloacae P99) [nM] | IC50 ([6]; lactamase from Enterobacter cloacae P 99) [nM] | I50 [7] | zone of inhibition at 250 µg/disc [8] [mm]
C=CC1=CN2C(=O)C[C@H]2O1 [Example 1, (5R)-7-oxo-3-vinyl-4-oxa-1-azabicyclo[3.2.0]hept-2-ene] | readily polymerises | 292 | 0.06 | 0.058 | 408 | 190 | – | – | –
CC=C1CN2C(=O)C[C@H]2O1 [Example 4, (5R)-3-ethylidene-4-oxa-1-azabicyclo[3.2.0]heptan-7-one] | – | – | – | 1.6 | 1580 | – | 2010 | 0.86 | –
C/C=C1/CN2C(=O)C[C@H]2O1 [Z-isomer, Z-(5R)-3-ethylidene-4-oxa-1-azabicyclo[3.2.0]heptan-7-one] | – | – | – | – | – | – | – | – | 22.1
